# Data taken from patent US20210347736A1, “CRYSTALLINE FORMS OF A FARNESOID X RECEPTOR AGONIST” (Metacrine, Inc., priority 2018, published 2021).
# “Also recorded” adds a separate entry of the source.
# Key:
# hFXR = molecular target: T1, hFXR (Homo sapiens, UniProt Q96RI1); experiment: In Vitro FXR Assay (TK hFXR luciferase reporter in transfected CV-1 cells); type: cell-based; settings: CV-1 cells transfected with hFXR, hRXR, TK-ECRE-luc; 18 hrs incubation; luminescence
# T1 construct: expressed in transfected cells; host or cells: CV-1 cells
# T1 sequence (Q96RI1 1-486): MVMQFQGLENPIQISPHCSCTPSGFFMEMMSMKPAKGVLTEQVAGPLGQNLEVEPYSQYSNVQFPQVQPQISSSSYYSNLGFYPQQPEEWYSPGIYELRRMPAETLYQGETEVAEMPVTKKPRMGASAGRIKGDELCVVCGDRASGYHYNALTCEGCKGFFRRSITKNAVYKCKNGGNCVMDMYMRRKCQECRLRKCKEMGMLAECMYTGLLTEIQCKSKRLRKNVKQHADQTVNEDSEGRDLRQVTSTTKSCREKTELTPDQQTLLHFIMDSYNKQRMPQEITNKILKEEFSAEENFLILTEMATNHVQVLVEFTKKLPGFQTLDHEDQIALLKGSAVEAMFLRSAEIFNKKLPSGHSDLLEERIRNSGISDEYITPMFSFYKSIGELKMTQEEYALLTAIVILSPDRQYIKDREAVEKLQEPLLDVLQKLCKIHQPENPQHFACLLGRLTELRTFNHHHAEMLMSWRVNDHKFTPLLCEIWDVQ
# T1 sequence (P19793 1-462 partner): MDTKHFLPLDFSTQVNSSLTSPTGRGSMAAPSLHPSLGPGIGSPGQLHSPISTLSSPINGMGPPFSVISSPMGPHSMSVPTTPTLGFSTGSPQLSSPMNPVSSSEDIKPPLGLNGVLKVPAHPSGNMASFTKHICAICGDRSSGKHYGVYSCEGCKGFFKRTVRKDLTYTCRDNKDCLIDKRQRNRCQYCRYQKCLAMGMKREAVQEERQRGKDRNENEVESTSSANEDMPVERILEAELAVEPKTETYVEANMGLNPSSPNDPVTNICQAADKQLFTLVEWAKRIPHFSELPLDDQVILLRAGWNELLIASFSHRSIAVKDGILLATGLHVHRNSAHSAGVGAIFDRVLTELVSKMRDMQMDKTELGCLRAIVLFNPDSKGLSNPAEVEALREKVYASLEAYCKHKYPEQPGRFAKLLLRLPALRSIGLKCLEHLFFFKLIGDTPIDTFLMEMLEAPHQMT
# Method: CV-1 cells were seeded at a density of 2,000,000 cells in a T175 flask with DMEM+10% charcoal double-stripped FBS and incubated at 37° C. in 5% CO2 for 18 h (O/N).
# After 18 h of incubation, the medium in the T175 flask was changed with fresh DMEM+10% charcoal super-stripped serum. In a polypropylene tube, 2500 μL OptiMEM (Life Technologies, Cat #31985-062) was combined with expression plasmids for hFXR, hRXR, TK-ECRE-luc and pCMX-YFP. The tube was then briefly vortexed and incubated at room temperature for 5 minutes. Transfection reagent (X-tremeGENE HP from Roche, Cat #06 366 236 001) was added to the OptiMEM/plasmid mixture vortexed and incubated at room temperature for 20 minutes. Following incubation, the transfection reagent/DNA mixture complex was added to cells in the T175 flask and the cells were incubated at 37° C. in 5% CO2 for 18 h (O/N).
# Compound 1 was serially diluted in DMSO and added to transfected CV-1 cells. The cells were then incubated for 18 hrs. The next day cells were lysed and examined for luminescence.
# [1] = Gravimetric Vapor Sorption (GVS); type: physicochemical
# Method: Sorption isotherms were obtained using a SMS DVS Intrinsic moisture sorption analyser, controlled by DVS Intrinsic Control software v1.0.1.2 (or v1.0.1.3). The sample temperature was maintained at 25° C. by the instrument controls. The humidity was controlled by mixing streams of dry and wet nitrogen, with a total flow rate of 200 ml/min The relative humidity was measured by a calibrated Rotronic probe (dynamic range of 1.0-100% RH), located near the sample. The weight change, (mass relaxation) of the sample as a function of % RH was constantly monitored by the microbalance (accuracy ±0.005 mg).
# Typically 5-20 mg of sample was placed in a tared mesh stainless steel basket under ambient conditions. The sample was loaded and unloaded at 40% RH and 25° C. (typical room conditions). A moisture sorption isotherm was performed as outlined below (2 scans giving 1 complete cycle). The standard isotherm was performed at 25° C. at 10% RH intervals over a 0-90% RH range. Data analysis was carried out using Microsoft Excel using DVS Analysis Suite v6.2 (or v6.1 or v6.0).
# The sample was recovered after completion of the isotherm and re-analysed by XRPD.
# [2] = Storage stability of Form 1 for 7 days at elevated humidity (HPLC purity, XRPD); type: physicochemical
# Method: X-Ray Powder Diffraction patterns were collected on a Bruker D8 diffractometer using Cu Kα radiation (40 kV, 40 mA), 0-20 goniometer, and divergence of V4 and receiving slits, a Ge monochromator and a Lynxeye detector. The instrument was performance checked using a certified Corundum standard (NIST 1976). The software used for data collection was Diffrac Plus XRD Commander v2.6.1 and the data were analysed and presented using Diffrac Plus EVA v15.0.0.0.
# Samples were run under ambient conditions as flat plate specimens using powder as received. The sample was gently packed into a cavity cut into polished, zero-background (510) silicon wafer. The sample was rotated in its own plane during analysis. The parameters for data collection were: angular range, 2 to 42° 2θ; step size, 0.05° 2θ; collection time, 0.5 s/step.
# Purity analysis was performed on an Agilent HP1100 series system equipped with a diode array detector and using ChemStation software vB.04.03 using the method detailed in Table 4 below:
# Further, Form 1 of Compound 1 was unchanged by XRPD after 7 days at 25° C. and 97% RH (see FIG. 6, trace (b)).
# Further, Form 1 of Compound 1 was unchanged by XRPD after 7 days at 40° C. and 75% RH (see FIG. 6, trace (c)).
# [3] = after 7 days at 25° C. and 97% RH
# [4] = after 7 days at 40° C. and 75% RH
EC50 (hFXR) [nM],Post-GVS analysis by XRPD ([1]; after GVS),"moisture uptake by GVS ([1]; between 0-90% RH, 25° C.) [%]","HPLC purity after storage [2, 3] [% AUC]","change by XRPD after storage [2, 3]","HPLC purity after storage [2, 4] [% AUC]","change by XRPD after storage [2, 4]",Compound,hygroscopicity / moisture uptake by GVS (in words) ([1]; summary statement)
≤ 250,,,,,,,"COc1ccc([C@H]2CC[C@H](CN(c3cccc(-c4cnn(C5CC5)c4)c3)C(=O)[C@H]3CC[C@H](O)CC3)CC2)cc1C [Compound 1, trans-N-(3-(1-cyclopropyl-1H-pyrazol-4-yl)phenyl)-4-hydroxy-N-((trans-4-(4-methoxy-3-methylphenyl)cyclohexyl)methyl)cyclohexanecarboxamide]",
,no change,0.02,99.40,unchanged; also recorded: no changes,99.48,unchanged; also recorded: no changes,"COc1ccc([C@H]2CC[C@H](CN(c3cccc(-c4cnn(C5CC5)c4)c3)C(=O)[C@H]3CC[C@H](O)CC3)CC2)cc1C [Form 1 of Compound 1, trans-N-(3-(1-cyclopropyl-1H-pyrazol-4-yl)phenyl)-4-hydroxy-N-((trans-4-(4-methoxy-3-methylphenyl)cyclohexyl)methyl)cyclohexanecarboxamide]",non-hygroscopic; also recorded: No significant moisture uptake
